Data on 9 compounds can be found in patent publication US12624368B2 (priority 2018, dated 2026).

In series [1] the test system is A(H7N7) virus. As to conditions: 1 h.
The subject of series [2] is HA mediated membrane fusion. As to conditions: pH 5.
The nature of series [3]: in vitro. As to conditions: dog.
The nature of series [4]: in vitro. As to conditions: human.
In series [5] the test system is A(H1N1)pdm09 virus. The series is classed as cell-based, influenza A virus A(H1N1)pdm09.
Series [6] deals with endosomal acidification in MDCK cells. It counts as cell-based, canine.
Series [7] relates to A(H1N1)pdm09 virus. Particulars: 1 h.
Series [8] relates to A(H7N7) virus. Further details: species or system BALB/c mice. Particulars: mouse, in vivo.
For another series, the system named is endosomal acidification. As to conditions: cited from earlier work.
Series [9] relates to A(H1N1)pdm09 virus. Further details: species or system BALB/c mice. As to conditions: in vivo.
Series [10] deals with A(H7N7) and A(H1N1)pdm09 virus. The series is classed as cell-based, influenza A virus. Particulars: 0-8,000 nM.
Another series deals with 293T cells. It counts as cell-based, human.
For a further series, the system named is mouse lungs. As to conditions: in vivo.
The mark [11] stands for this setting: MDCK cells, P1 25.0 μg ml^−1, TAT-P1 3.1 μg ml^−1, bafilomycin A1 100.0 nM, PA1 25.0 μg ml^−1.

Values after ≈ are worked out from the molar mass of the structure shown. “Also recorded” adds a separate entry of the source. Like-named read-outs stand apart in the source and are kept apart here. Where a SMILES comes first, the peptide text is derived from it. Bounds are passed on as bounds.

For the compound `CC[C@H](C)[C@H](NC(=O)[C@H](CCC(N)=O)NC(=O)[C@H](CCCNC(=N)N)NC(=O)[C@H](Cc1ccccc1)NC(=O)[C@H](C)NC(=O)[C@@H](NC(=O)[C@@H]1CCCN1C(=O)[C@H](CS)NC(=O)[C@@H]1CCCN1C(=O)CNC(=O)[C@H](Cc1c[nH]c2ccccc12)NC(=O)[C@@H](N)CS)[C@@H](C)O)C(=O)NCC(=O)N[C@@H](CC(N)=O)C(=O)N[C@@H](CS)C(=O)NCC(=O)N[C@@H](CCCNC(=N)N)C(=O)N[C@@H](Cc1ccccc1)C(=O)N[C@@H](CCCNC(=N)N)C(=O)N[C@H](C(=O)N[C@@H](CCCNC(=N)N)C(=O)N[C@@H](CS)C(=O)N[C@@H](CS)C(=O)N[C@@H](CCCNC(=N)N)C(=O)N[C@H](C(=O)N[C@@H](CCCNC(=N)N)C(=O)O)[C@@H](C)CC)C(C)C` [P1] (H-CWGPCPTAFRQIGNCGRFRVRCCRIR-OH), the “IC50 (H7N7)” value with A(H7N7) virus [1] is 1.56 µg/mL (≈ 0.51 µM). In addition, the HA-mediated membrane fusion entry in series [2] was “did not inhibit HA-mediated membrane fusion”. For the same compound, the CC50 in “in vitro [3]” and in “in vitro [4]” was more than 400 µg/mL in each case. In the series with H7N7 virus, the “viral replication in 293T cells (viral titers by plaque assay)” value was “could significantly inhibit viral replication”. In addition, the “viral RNP release into the nuclei” value with A(H1N1)pdm09 virus [5] is on record as “blocked viral RNP release into the nuclei”. Moreover, in [6], the endosomal acidification entry was “prevented endosomal acidification”.

Consider `N=C(N)NCCC[C@H](NC(=O)[C@H](CCCNC(=N)N)NC(=O)[C@H](CCCNC(=N)N)NC(=O)[C@H](CCC(N)=O)NC(=O)[C@H](CCCNC(=N)N)NC(=O)[C@H](CCCNC(=N)N)NC(=O)[C@H](CCCCN)NC(=O)[C@H](CCCCN)NC(=O)[C@H](CCCNC(=N)N)NC(=O)CNC(=O)[C@@H](N)Cc1ccc(O)cc1)C(=O)O` [TAT, YGRKKRRQRRR (SEQ ID NO: 7), reference compound], for which the “IC50 (H7N7)” value with A(H7N7) virus [1] was more than 50.0 µg/mL. Further, the CC50 in “in vitro [3]” and in the series “in vitro [4]” was more than 400 µg/mL in each case. In the series with A(H1N1)pdm09 virus [7], the “IC50 (H1N1)” value was more than 50.0 µg/mL.

Take `CC[C@H](C)[C@H](NC(=O)[C@H](CCC(N)=O)NC(=O)[C@H](CCCNC(=N)N)NC(=O)[C@H](Cc1ccccc1)NC(=O)[C@H](C)NC(=O)[C@@H](NC(=O)[C@@H]1CCCN1C(=O)[C@H](CS)NC(=O)[C@@H]1CCCN1C(=O)CNC(=O)[C@H](Cc1c[nH]c2ccccc12)NC(=O)[C@H](CS)NC(=O)[C@H](CCCNC(=N)N)NC(=O)[C@H](CCCNC(=N)N)NC(=O)[C@H](CCCNC(=N)N)NC(=O)[C@H](CCC(N)=O)NC(=O)[C@H](CCCNC(=N)N)NC(=O)[C@H](CCCNC(=N)N)NC(=O)[C@H](CCCCN)NC(=O)[C@H](CCCCN)NC(=O)[C@H](CCCNC(=N)N)NC(=O)CNC(=O)[C@@H](N)Cc1ccc(O)cc1)[C@@H](C)O)C(=O)NCC(=O)N[C@@H](CC(N)=O)C(=O)N[C@@H](CS)C(=O)NCC(=O)N[C@@H](CCCNC(=N)N)C(=O)N[C@@H](Cc1ccccc1)C(=O)N[C@@H](CCCNC(=N)N)C(=O)N[C@H](C(=O)N[C@@H](CCCNC(=N)N)C(=O)N[C@@H](CS)C(=O)N[C@@H](CS)C(=O)N[C@@H](CCCNC(=N)N)C(=O)N[C@H](C(=O)N[C@@H](CCCNC(=N)N)C(=O)O)[C@@H](C)CC)C(C)C` [TAT-P1] (H-YGRKKRRQRRRCWGPCPTAFRQIGNCGRFRVRCCRIR-OH): the HA-mediated membrane fusion result in series [2] was “did not inhibit HA-mediated membrane fusion”. The results for the CC50 in the series “in vitro [3]” and in the series “in vitro [4]” were 300 µg/mL (≈ 65.2 µM) and 226 µg/mL (≈ 49.1 µM), respectively. Besides, in the series with H7N7 virus, the “viral replication in 293T cells (viral titers by plaque assay)” value is “could significantly inhibit viral replication”. The compound further came in with a survival in the series with A(H7N7) virus [8] of 30%. The “viral RNP release into the nuclei” value in the series with A(H1N1)pdm09 virus [5] was “blocked viral RNP release into the nuclei”. In addition, the endosomal acidification result in [6] (setting [11]) is listed as “prevented endosomal acidification”.

Turning to `CC[C@H](C)[C@H](NC(=O)[C@H](CCCNC(=N)N)NC(=O)[C@H](CS)NC(=O)[C@H](CS)NC(=O)[C@H](CCCNC(=N)N)NC(=O)[C@@H](NC(=O)[C@H](CCCNC(=N)N)NC(=O)[C@H](Cc1ccccc1)NC(=O)[C@H](CCCNC(=N)N)NC(=O)CNC(=O)[C@H](CS)NC(=O)[C@H](CC(N)=O)NC(=O)[C@H](CCCNC(=N)N)NC(=O)[C@H](CCCCN)NC(=O)[C@H](CCCNC(=N)N)NC(=O)[C@H](Cc1ccccc1)NC(=O)[C@H](C)NC(=O)[C@H](CCCNC(=N)N)NC(=O)[C@@H]1CCCN1C(=O)[C@H](CS)NC(=O)[C@@H]1CCCN1C(=O)[C@H](CCCNC(=N)N)NC(=O)[C@H](Cc1c[nH]c2ccccc12)NC(=O)[C@H](CS)NC(=O)[C@H](CCCNC(=N)N)NC(=O)[C@H](CCCNC(=N)N)NC(=O)[C@H](CCCNC(=N)N)NC(=O)[C@H](CCC(N)=O)NC(=O)[C@H](CCCNC(=N)N)NC(=O)[C@H](CCCNC(=N)N)NC(=O)[C@H](CCCCN)NC(=O)[C@H](CCCCN)NC(=O)[C@H](CCCNC(=N)N)NC(=O)CNC(=O)[C@@H](N)Cc1ccc(O)cc1)[C@@H](C)CC)C(=O)N[C@@H](CCCNC(=N)N)C(=O)O` [TAT-P2] (H-YGRKKRRQRRRCWRPCPRAFRKRNCGRFRIRCCRIR-OH; N-terminus and C-terminus assumed), the CC50 was 160 µg/mL (≈ 33.7 µM) in “in vitro [3]” and 154 µg/mL (≈ 32.4 µM) in the series “in vitro [4]”.

On to `CC[C@H](C)[C@H](NC(=O)[C@H](CCCNC(=N)N)NC(=O)[C@H](CS)NC(=O)[C@H](CCCNC(=N)N)NC(=O)[C@@H](NC(=O)[C@H](CCCNC(=N)N)NC(=O)[C@H](Cc1ccccc1)NC(=O)[C@H](CCCNC(=N)N)NC(=O)CNC(=O)[C@H](CS)NC(=O)[C@H](CC(C)C)NC(=O)[C@H](CCC(N)=O)NC(=O)[C@H](CCCNC(=N)N)NC(=O)[C@H](Cc1ccccc1)NC(=O)[C@H](CO)NC(=O)[C@@H]1CCCN1C(=O)[C@H](CS)NC(=O)[C@@H]1CCCN1C(=O)[C@H](CCCNC(=N)N)NC(=O)[C@H](Cc1c[nH]c2ccccc12)NC(=O)[C@H](CS)NC(=O)[C@H](CCCNC(=N)N)NC(=O)[C@H](CCCNC(=N)N)NC(=O)[C@H](CCCNC(=N)N)NC(=O)[C@H](CCC(N)=O)NC(=O)[C@H](CCCNC(=N)N)NC(=O)[C@H](CCCNC(=N)N)NC(=O)[C@H](CCCCN)NC(=O)[C@H](CCCCN)NC(=O)[C@H](CCCNC(=N)N)NC(=O)CNC(=O)[C@@H](N)Cc1ccc(O)cc1)[C@@H](C)CC)C(=O)N[C@@H](CCCNC(=N)N)C(=O)O` [TAT-P3] (H-YGRKKRRQRRRCWRPCPSFRQLCGRFRIRCRIR-OH; N-terminus and C-terminus assumed), for which the CC50 in “in vitro [3]” was determined as 207 µg/mL (≈ 47.6 µM); in “in vitro [4]”, 205 µg/mL (≈ 47.1 µM).

With `CCN(CC)CCCC(C)Nc1ccnc2cc(Cl)ccc12` (stereo not drawn) [chloroquine], the “effective concentrations for inhibiting endosomal acidification” value in the series on endosomal acidification is approximately 100 µM.

Take `CC(=O)N[C@H]1[C@H]([C@H](O)[C@H](O)CO)OC(C(=O)O)=C[C@@H]1N=C(N)N` [zanamivir]: the “viral titers in mouse lungs” value in the series with A(H1N1)pdm09 virus [9] is reported as “significantly reduced”. In the series with A(H1N1)pdm09 virus [9] (mouse), the “IL-6 expression in mice” value is “significantly reduced”, the body weight loss entry is listed as “significantly reduced” and the survival amounted to 90%. The “susceptibility of A(H7N7) virus to zanamivir compared with A(H1N1)pdm09 virus” value in [10] is given as “reduced susceptibility; also recorded: reduced sensitivity of A(H7N7) virus to zanamivir”. In the series on A(H7N7) virus [8], the body weight loss entry is “significantly less body weight loss” and the survival was determined as 40%.

For Bafilomycin A1 [reference compound], in the series on 293T cells, the “effect of added agent on transfection efficiency of TAT-P1/pLuc” value was “increased”. In addition, in the series with A(H1N1)pdm09 virus [5], the “viral RNP release into the nuclei” value is “blocked viral RNP release into the nuclei”. Also, the endosomal acidification result in [6] (setting [11]) was “prevented endosomal acidification”.

On to “NGAICWGPCPTAFRQIG NCGHFKVRCCKIRDED (SEQ ID NO: 9) [PA1, reference compound]”, for which the “effect of added agent on transfection efficiency of TAT-P1/pLuc” value in the series with 293T cells is “did not improve the transfection efficiency”. Further, the “effect of added peptide on transfection efficiency of TAT-P1/pLuc in mouse lungs” value with mouse lungs is listed as “did not improve the transfection efficiency”. In addition, the endosomal acidification result in series [6] is given as “did not prevent endosomal acidification”.
